Measurements as given in ChEMBL document CHEMBL1201862, “PubChem BioAssay data set” (2004).
Active and inactive are the calls of the source.

Tests used:
[1] = target: T1, Sentrin-specific protease 8 (Homo sapiens, UniProt Q96LD8); type: functional;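 also: luminescence read-out of SENP8 inhibition, dose-response confirmation following an ultra-high-throughput screen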
T1 sequence (Q96LD8 whole entry): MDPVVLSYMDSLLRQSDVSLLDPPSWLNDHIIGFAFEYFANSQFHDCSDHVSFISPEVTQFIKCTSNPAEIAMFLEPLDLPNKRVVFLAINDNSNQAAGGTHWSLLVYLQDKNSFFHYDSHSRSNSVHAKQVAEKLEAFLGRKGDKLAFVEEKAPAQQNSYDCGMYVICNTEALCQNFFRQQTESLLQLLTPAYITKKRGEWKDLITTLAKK

Caspase-3 = target: T2, Caspase-3 (Homo sapiens, UniProt P42574); type: functional;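 also: Dose-response selectivity test against caspase-3 for candidate inhibitors of sentrin-specific proteases (SENPs)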
T2 sequence (P42574 whole entry): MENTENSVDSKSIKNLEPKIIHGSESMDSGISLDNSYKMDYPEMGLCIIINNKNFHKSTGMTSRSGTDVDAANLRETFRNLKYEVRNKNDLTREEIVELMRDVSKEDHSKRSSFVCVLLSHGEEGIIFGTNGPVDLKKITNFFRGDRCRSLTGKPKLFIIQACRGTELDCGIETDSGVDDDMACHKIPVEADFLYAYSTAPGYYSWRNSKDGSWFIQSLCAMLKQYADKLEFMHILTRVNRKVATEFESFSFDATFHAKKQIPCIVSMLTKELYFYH

[2] = target: T3, Sentrin-specific protease 6 (Homo sapiens, UniProt Q9GZR1); type: functional;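 also: Luminescence-based dose-response confirmatory assay of SENP6 inhibition, following up an ultra-high-throughput screen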
T3 sequence (Q9GZR1 whole entry): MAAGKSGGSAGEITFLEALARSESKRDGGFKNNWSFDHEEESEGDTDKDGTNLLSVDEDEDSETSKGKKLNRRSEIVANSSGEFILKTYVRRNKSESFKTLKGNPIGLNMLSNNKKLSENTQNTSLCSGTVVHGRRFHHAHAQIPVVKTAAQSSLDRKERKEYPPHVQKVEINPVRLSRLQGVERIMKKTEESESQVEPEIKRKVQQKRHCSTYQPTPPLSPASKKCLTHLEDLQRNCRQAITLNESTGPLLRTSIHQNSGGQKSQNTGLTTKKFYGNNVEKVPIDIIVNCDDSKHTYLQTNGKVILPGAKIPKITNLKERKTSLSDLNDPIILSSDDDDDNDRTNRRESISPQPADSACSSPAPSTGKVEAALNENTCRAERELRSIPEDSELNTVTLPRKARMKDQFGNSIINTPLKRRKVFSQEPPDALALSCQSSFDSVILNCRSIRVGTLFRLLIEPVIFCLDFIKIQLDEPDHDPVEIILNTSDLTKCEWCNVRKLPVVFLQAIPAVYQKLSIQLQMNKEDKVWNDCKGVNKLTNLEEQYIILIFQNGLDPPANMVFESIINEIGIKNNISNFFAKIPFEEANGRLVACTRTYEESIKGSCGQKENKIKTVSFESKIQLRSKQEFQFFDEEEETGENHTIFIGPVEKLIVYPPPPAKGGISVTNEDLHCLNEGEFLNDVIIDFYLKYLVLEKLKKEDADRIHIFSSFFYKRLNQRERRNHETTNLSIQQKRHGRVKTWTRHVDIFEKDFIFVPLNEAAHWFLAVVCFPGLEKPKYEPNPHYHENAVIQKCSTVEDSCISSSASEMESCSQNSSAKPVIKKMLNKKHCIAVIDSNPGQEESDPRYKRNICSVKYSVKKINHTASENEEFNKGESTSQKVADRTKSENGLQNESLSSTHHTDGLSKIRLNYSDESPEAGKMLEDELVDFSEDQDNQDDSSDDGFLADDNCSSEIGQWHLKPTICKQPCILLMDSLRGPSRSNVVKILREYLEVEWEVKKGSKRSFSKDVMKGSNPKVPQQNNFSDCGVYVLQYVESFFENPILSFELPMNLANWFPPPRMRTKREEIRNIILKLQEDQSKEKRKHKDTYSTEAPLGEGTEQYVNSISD

[3] = target: T4, Sentrin-specific protease 7 (Homo sapiens, UniProt Q9BQF6); type: functional;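 also: Luminescence-based dose-response confirmation of ultra-high-throughput screening hits, measuring inhibition of SENP7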
T4 sequence (Q9BQF6 whole entry): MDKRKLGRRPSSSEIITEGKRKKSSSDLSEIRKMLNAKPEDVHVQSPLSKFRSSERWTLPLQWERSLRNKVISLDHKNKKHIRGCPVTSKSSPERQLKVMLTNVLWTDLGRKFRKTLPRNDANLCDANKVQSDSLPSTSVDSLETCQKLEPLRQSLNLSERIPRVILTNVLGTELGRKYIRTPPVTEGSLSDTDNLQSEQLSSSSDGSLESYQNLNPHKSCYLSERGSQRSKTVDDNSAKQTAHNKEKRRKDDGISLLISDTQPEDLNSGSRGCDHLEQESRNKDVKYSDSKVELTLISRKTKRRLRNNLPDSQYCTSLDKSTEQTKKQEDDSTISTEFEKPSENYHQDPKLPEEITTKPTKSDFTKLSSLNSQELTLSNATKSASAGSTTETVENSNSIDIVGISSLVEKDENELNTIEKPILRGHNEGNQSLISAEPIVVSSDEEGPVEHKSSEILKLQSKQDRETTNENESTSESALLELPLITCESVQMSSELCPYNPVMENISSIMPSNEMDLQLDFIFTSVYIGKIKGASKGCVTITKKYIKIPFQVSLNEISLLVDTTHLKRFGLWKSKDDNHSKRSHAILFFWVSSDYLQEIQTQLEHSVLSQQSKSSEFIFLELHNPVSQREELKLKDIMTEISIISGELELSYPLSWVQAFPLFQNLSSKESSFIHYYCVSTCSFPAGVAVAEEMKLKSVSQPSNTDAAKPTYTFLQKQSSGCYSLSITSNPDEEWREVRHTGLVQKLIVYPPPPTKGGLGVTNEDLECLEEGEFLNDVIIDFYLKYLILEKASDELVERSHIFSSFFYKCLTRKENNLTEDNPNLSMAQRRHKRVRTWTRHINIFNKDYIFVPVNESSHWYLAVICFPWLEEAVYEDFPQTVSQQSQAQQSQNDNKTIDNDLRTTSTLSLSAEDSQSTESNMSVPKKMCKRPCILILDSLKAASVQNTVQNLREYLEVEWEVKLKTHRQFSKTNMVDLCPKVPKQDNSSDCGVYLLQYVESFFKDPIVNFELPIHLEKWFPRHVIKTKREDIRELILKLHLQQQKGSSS

SN12K1 = test: cells; type: functional; details: Homo sapiens
P388/ADR = test: cells; type: functional; details: Mus musculus
P388 = test: cells; type: functional; details: Mus musculus
[4] = HepG2 cell cytotoxicity, dose response, cytotoxicity control, cherry-picked samples (AID 1159577); type: functional, cell-based
[5] = P. falciparum Dd2 growth inhibitors, dose response, SYBR Green, cherry-picked samples (AID 1159567); type: functional, cell-based
[6] = CEM21 lymphoblast cell cytotoxicity, dose response, cytotoxicity control for viral fusion inhibitor project, CellTiter-Glo luminescence, cherry-picked (AID 652042); type: functional, cell-based;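 also: potency for signal decrease meaning cytotoxicity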
[7] = off-target signal loss in HeLa-CEM21 co-culture – HeLa F-luc CTL cells, cherry-picked, counter-screen for HIV-1 Env fusion inhibitor project, dose response (AID 652040); type: functional, cell-based;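 also: potency for signal decrease marking cytotoxic or nonspecific inhibition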
[8] = ZM109 Env clade C HIV-1 fusion inhibitors, dose response, HeLa effector, CEM target cells, luciferase, cherry-pick (AID 652058); type: functional, cell-based
[9] = inhibitors of clade B AD8 Env fusion, dose response, cell-based, cherry-pick (AID 652062); type: functional;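 also: luciferase signal from cell-cell fusion driven by HIV-1 clade B AD8 Env; potency is for inhibitors of fusion seen as a drop in luminescence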
[10] = inhibitors of HIV Env-driven cell fusion, dose response, cherry-pick (AID 652057); type: functional, cell-based
[11] = LGR2 antagonists, dose response, cell-based, HEK293, CRE-luciferase reporter, cherry pick, set 2 (AID 743343); type: functional;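 also: transfected cells were stimulated with diluted bursicon conditioned medium after compound addition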
[12] = Luminescence Cell-Based Dose Retest to Confirm Inhibitors of Cancer Stem Cells. [Related pubchem assays (depositor defined):AID2717, AID2721]; type: functional; details: Homo sapiens
[13] = A549 cell cytotoxicity, dose response, cytotoxicity control, plate reader, cherry-pick, antagonist series (AID 743412); type: functional, cell-based
[14] = MC4R antagonists, dose response, counter-screen for LGR2 antagonist project, cell-based, plate reader, cherry pick (AID 743444); type: functional;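 also: transfected HEK 293 cells stimulated with alpha-MSH peptide; potency of inhibitors of the alpha-MSH evoked signal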
Paired box protein Pax-8 = Paired box protein Pax-8 (Homo sapiens, UniProt Q06710); test: inhibitors of PAX8-driven TPO luciferase reporter, dose response, RMG-I cells, cherry-pick (AID 687027); type: functional, cell-based;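 also: luciferase reporter driven by Pax8 target thyroperoxidase promoter measured by SteadyGlo luminescence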
[15] = HEK293 cell cytotoxicity, dose response, cytotoxicity control, plate reader, cherry-picked samples (AID 743446); type: functional, cell-based
[16] = THP-1 cell cytotoxicity, dose response, cytotoxicity control for Vif-APOBEC3G degradation inhibitor project, THP-1 cells (AID 1117359); type: functional; details: Human immunodeficiency virus 1, THP-1
[17] = target: Photoreceptor-specific nuclear receptor (Homo sapiens, UniProt Q9Y5X4); type: functional, cell-based;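 also: CHO-S cells with Gal4-NCOR and VP16-NR2E3 two-hybrid luciferase reporter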
HEK293 = test: inhibitors of LMP1-driven NF-kB reporter, dose response, cell-based, HEK293, luciferase, cherry-pick (AID 588343); type: functional; details: Homo sapiens
[18] = HepG2 cell cytotoxicity, dose response, cytotoxicity control, plate reader, cherry-pick, antagonist series (AID 743416); type: functional, cell-based

Photoreceptor-specific nuclear receptor, sequence (Q9Y5X4 whole entry, the tested form may be a part): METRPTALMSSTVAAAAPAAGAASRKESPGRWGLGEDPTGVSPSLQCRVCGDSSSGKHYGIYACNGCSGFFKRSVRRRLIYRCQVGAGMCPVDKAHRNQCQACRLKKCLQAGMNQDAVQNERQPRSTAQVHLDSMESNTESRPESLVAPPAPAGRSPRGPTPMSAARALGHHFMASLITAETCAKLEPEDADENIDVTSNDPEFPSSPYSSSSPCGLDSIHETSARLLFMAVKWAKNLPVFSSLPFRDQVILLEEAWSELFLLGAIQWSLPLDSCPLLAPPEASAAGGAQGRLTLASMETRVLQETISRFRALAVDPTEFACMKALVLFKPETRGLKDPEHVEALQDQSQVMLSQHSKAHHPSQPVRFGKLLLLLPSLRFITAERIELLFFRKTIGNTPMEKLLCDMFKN
Paired box protein Pax-8, sequence (Q06710 whole entry): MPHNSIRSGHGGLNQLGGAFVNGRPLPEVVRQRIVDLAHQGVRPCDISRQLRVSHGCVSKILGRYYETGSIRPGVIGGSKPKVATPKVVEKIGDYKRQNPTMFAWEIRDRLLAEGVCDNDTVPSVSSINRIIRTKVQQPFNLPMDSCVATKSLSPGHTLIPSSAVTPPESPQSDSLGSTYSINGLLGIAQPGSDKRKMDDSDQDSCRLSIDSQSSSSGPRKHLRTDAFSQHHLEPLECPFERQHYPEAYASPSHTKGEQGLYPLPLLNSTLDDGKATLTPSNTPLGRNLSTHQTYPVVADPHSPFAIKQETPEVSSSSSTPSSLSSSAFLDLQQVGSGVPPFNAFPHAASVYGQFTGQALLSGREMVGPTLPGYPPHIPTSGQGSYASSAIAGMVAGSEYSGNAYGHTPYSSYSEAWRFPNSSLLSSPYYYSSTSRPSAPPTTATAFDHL

CCCCCc1ccc(-c2ccc(OC)cc2)nc1
IC50 [1]: 80.5 µM (active)
IC50 (Caspase-3): 37.2 µM (active)
IC50 [2]: 41.8 µM (active)
IC50 [3]: 9.32 µM (active)

O=C(O)CCCCCCC[C@@H]1S[C@H]1CCCCCCO
GI50 (SN12K1): > 100 µM (inactive)
GI50 (P388/ADR): > 100 µM (inactive)
GI50 (P388): > 100 µM (inactive)

Cc1cccc(-c2ccc([C@H]3[C@H]4CN(CCC(F)(F)F)CCCCN4[C@H]3CO)cc2)c1
AC50 [4]: 9.1 µM (active)
AC50 [5]: 1.08 µM (active)

O=S(=O)(c1ccc(F)cc1)N1CCCCN2[C@H](CO)[C@H](c3ccc(-c4ccccc4F)cc3)[C@H]2C1
AC50 [4]: 11 µM (active)
AC50 [5]: 1.97 µM (active)

CCCCCCCCCCNC1CC(OC2CC(O)(C(O)CO)Cc3c(O)c4c(c(O)c32)C(=O)c2c(OC)cccc2C4=O)OC(C)C1O (centres undefined)
GI50 (SN12K1): 1.25 µM (inactive)
GI50 (P388/ADR): 1.52 µM (inactive)
GI50 (P388): 0.168 µM (active)

CCCCCCCCN1C(=O)[C@H](CC(=O)NCCCC)C[C@@]2(C(=O)OCC)CCCC=C12
AC50 [6]: 37.5 µM (active)
AC50 [7]: 66.4 µM (active)
AC50 [8]: 23.2 µM (active)
AC50 [9]: 16.3 µM (active)
AC50 [10]: 7.2 µM (active)

Cn1nnnc1Sc1ncnc2scc(-c3cccc(Br)c3)c12
AC50 [11]: 5.22 µM (active)
AC50 [12]: 1.86 µM (active)
AC50 [13]: 9.25 µM (active)
AC50 [14]: 6.1 µM (active)
AC50 (Paired box protein Pax-8): 2.75 µM (active)
AC50 [15]: 11.1 µM (active)

COc1c2ccoc2c(S(=O)(=O)Nc2ccc(Cl)cc2)c2oc(C)cc(=O)c12
GI50 (SN12K1): > 100 µM (inactive)
GI50 (P388/ADR): 72.4 µM (inactive)
GI50 (P388): 69.3 µM (inactive)

O=C1/C(=C/c2ccco2)SC(=S)N1C1CCS(=O)(=O)C1 (centres undefined)
CC50 [16]: > 40 µM (active)

O=C(Nc1ccc(C2CC2(Cl)Cl)cc1)c1cccc([N+](=O)[O-])c1 (centres undefined)
IC50 [1]: 29.5 µM (active)
IC50 (Caspase-3): 28.8 µM (active)
IC50 [2]: 7.84 µM (active)
IC50 [3]: 5.14 µM (active)

C[C@H](CO)N1C[C@H](C)[C@@H](CN(C)Cc2ccccc2)Oc2ccc(NC(=O)Nc3ccc(F)cc3)cc2CC1=O
AC50 [4]: > 39 µM (inactive)
AC50 [5]: 4.02 µM (active)

CC(C)CC/N=c1/cc2n(-c3ccc(Cl)cc3)c3ccccc3nc-2cc1Nc1ccc(Cl)cc1
GI50 (SN12K1): 6.4 µM (inactive)
GI50 (P388/ADR): 2.19 µM (inactive)
GI50 (P388): 2.82 µM (inactive)

COc1cccc(CN2CCC2(C)C(=O)Nc2cccc(Oc3ccccc3)c2)c1OC (centres undefined)
AC50 [6]: 61.8 µM (active)
AC50 [7]: > 70 µM (inactive)
AC50 [9]: 20.4 µM (active)
AC50 [10]: 3.47 µM (active)

Nc1nc(N)nc(-c2ccccc2NS(=O)(=O)c2ccc([N+](=O)[O-])cc2)n1
GI50 (SN12K1): > 56.5 µM (inactive)
GI50 (P388/ADR): 38.5 µM (inactive)
GI50 (P388): 57.1 µM (inactive)

COCCn1c(C)cc(C(=O)COc2ccc(C)nc2[N+](=O)[O-])c1C
IC50 [17]: 5.55 µM (active)
AC50 (HEK293): 9.91 µM (active)

COc1ccc(/C=N/N2CCN(c3ccccc3OC)CC2)cc1Br
IC50 [1]: 54.9 µM (active)
IC50 (Caspase-3): 21.1 µM (active)
IC50 [2]: 25 µM (active)
IC50 [3]: 7.1 µM (active)

O=C(c1cc(-c2ccccc2Cl)nc2ccc(Br)cc12)N1CCN(c2ccccn2)CC1
AC50 [11]: 28.3 µM (active)
AC50 [18]: 50.3 µM (active)
AC50 [13]: 34.5 µM (active)
AC50 [14]: 29.2 µM (active)
AC50 [15]: 22.8 µM (active)

O=C(NCCSc1ccccc1)c1ccc(Br)cc1
IC50 [1]: 26.8 µM (active)
IC50 (Caspase-3): 17.7 µM (active)
IC50 [2]: 22.4 µM (active)
IC50 [3]: 7.71 µM (active)

CCCCCCCCCCCCCCCC(=O)OCC1OC(n2ccc(N)nc2=O)C(O)C1O (centres undefined)
AC50 [6]: 24 µM (active)
AC50 [7]: 0.44 µM (active)
AC50 [8]: < 0.26 µM (active)
AC50 [9]: 0.922 µM (active)
AC50 [10]: 0.557 µM (active)

C[C@H]1CN([C@@H](C)CO)C(=O)Cc2cc(NC(=O)Nc3ccc(F)cc3)ccc2O[C@H]1CN(C)CC1CCCCC1
AC50 [18]: 16.6 µM (active)
AC50 [13]: 9.61 µM (active)
AC50 [14]: 55.8 µM (active)
AC50 [15]: 15.4 µM (active)
